Legend:
Human GPR120 short form = target: T1, Human GPR120 short form (Homo sapiens, UniProt Q5NUL3); experiment: Human GPR120 calcium flux assay (FLIPR), Procedure Calcium B; assay type: cell-based; settings: HEK-293 cells expressing human GPR120 short form, 4200 cells/well; read-out: GPR120 Ca2+ Assay B EC50
T1 construct: expressed in transfected cells
T1 sequence (Q5NUL3 1-361): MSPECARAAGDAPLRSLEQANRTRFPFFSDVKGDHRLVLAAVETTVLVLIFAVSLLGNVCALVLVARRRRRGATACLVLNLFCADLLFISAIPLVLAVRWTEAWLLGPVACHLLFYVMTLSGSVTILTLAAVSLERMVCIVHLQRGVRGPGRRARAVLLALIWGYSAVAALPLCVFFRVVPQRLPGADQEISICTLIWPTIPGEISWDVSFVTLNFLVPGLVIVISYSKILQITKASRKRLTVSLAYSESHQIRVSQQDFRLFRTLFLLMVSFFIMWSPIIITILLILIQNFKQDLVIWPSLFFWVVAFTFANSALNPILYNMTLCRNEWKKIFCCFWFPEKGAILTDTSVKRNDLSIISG
Text: This in vitro assay serves to assess test compound agonist activity against the short splice variant (SVS with Accession number NM_001195755.1 confirmed by sequencing data) of the GPR120 receptor. The Human Short splice variant #2 (NM_001195755.1) is missing an in-frame coding exon compared to variant 1 (the Human Long splice variant NM_181745.3), resulting in a shorter isoform (GPR120-S) lacking a 16 aa protein segment compared to isoform GPR120-L. The assay platform utilizes HEK-293 cells stably transfected to express the Human GPR120 short form. These cells are first loaded with the Ca^+2 sensitive dye, Fluo-4 NW. Upon stimulation, intracellular released Ca^+2 can bind to the dye and alter its fluorescence intensity. This increase in fluorescence signal, and thus the flux in intracellular [Ca^2+], is detected and quantitated by fluorescence imaging using a FLIPR reader. The effect of the agonist is measured as a function of concentration and used to calculate an EC50 based upon a response curve.
In this procedure 4200 cells/well were employed.
A Human GPR120 clone (Genbank accession number NM_001195755.1) was placed into the pcDNA3.1 mammalian expression vector carrying the neomycin resistance gene. A stable mammalian cell was generated by placing the above clone into a HEK293 background. Clonal cells responding to long chain fatty acids had expression levels of GPR120 confirmed by RT-qPCR. Human HEK-GPR120 cells were cultured in Dulbecco's Modified Eagle's Medium (DMEM)/F12 medium supplemented with 10% fetal bovine serum (FBS), 1% L-Glutamine and 1% penicillin/streptomycin and 0.5 mg/ml G-418. Cells were split 2 times a week to keep the cells in the log-phase growth.
In preparation for the assay, HEK cells stably transfected with Human GPR120 (2.5K cells per well in 25 uL growth medium) were seeded into 384-well plates and then incubated overnight (37° C., 5% CO2). The next day, the media was changed to 20 μL assay buffer and the cell starved for 1 h at 37° C. The dye loading solution (2× dye) was prepared using 10 mL assay buffer, 100 μL of 250 mM probenecid, 1 bottle of Component A, and 20 μl of dye in DMSO. Twenty μL of the 2× dye loading buffer was then added to each well. The plates were incubated at 37° C. for 30 min, then at room temperature for an additional 15 minutes, before performing the assay on FLIPR. Test compounds were prepared in assay buffer (2 uL of cpd+198 uL assay buffer, final DMSO in assay plate is 0.2%) at the desired concentration, more particularly at 100, 50, 25, 12.5, 6.25, 3.125, 1.562, 0.781, 0.391, 0.195, 0.098, 0.049, 0.024 and 0.012 μM.
The assay was performed on a FLIPR plate reader using the following parameters. Baseline was read for 10 seconds at 1 sec intervals. The program was set to transfer 10 μL of ligand from compound plate to cell plate after baseline reading. Aspiration was executed at: 10 μL/sec speed, 4.6 μL height; Dispensing was executed at: 30 μL/sec speed, 45 μL height. After compound addition, each well was read for 300 sec, with measurements collected at 1 sec intervals.
The kinetic data from the FLIPR was based upon a 5 minute window for data collection. The fluorescence of each sample well was used for individual calculations of a normalized RFU value, which was defined as maximum response minus the minimum response. The normalized fluorescence reading (RFU) was calculated as follows: RFU=Fmax−Fmin The data were fitted to a sigmoidal dose-response curve with a variable Hill slope (<2) using nonlinear regression with GraphPad Prism 5.0 to calculate the EC50 values. The Fitting Equation was: Y=Bottom+(Top−Bottom)/(1+10^((Log EC50−X)*HillSlope)), where X is the log of the concentration and Y is the response.

[1] = target: T2, short form of the GPR120 receptor (GPR120S) (Homo sapiens, UniProt Q5NUL3); experiment: Human GPR120 DiscoveRx PathHunter Beta-Arrestin assay, Procedure β-arrestin B; assay type: cell-based; settings: PathHunter CHO-K1 GPR120S β-Arrestin cell line, 5000 cells/well, read-out: hGPR120 β-arrestin B EC50
T2 construct: host or cells: PathHunter CHO-K1 GPR120S β-Arrestin Cell Line
T2 sequence (P32121 whole entry partner, one chain of several): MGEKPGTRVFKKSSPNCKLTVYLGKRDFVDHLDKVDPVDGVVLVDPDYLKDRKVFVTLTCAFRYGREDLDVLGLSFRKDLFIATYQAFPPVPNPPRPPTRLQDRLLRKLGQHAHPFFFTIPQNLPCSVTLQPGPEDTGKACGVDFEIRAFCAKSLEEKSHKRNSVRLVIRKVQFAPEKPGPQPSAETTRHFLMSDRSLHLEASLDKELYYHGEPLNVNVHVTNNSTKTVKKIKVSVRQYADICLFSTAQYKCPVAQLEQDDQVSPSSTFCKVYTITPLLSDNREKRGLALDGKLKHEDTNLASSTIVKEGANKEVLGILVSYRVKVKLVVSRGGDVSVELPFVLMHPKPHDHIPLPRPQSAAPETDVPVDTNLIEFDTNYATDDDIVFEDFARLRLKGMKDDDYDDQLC
Outline: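 PathHunter CHO-K1 β-arrestin cells expressed long-form GPR120 (Procedure A, 3000 cells/well) or short-form GPR120 (Procedure B, 5000 cells/well). Compounds were serially diluted from 25 µM and incubated 90 min at 37 °C in HBSS/20 mM HEPES/0.1% BSA, pH 7.4. Luminescence was read after 60 min detection at RT; EC50 comes from % activity versus positive control, Hill slope fixed at 1.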

An EC50 (Human GPR120 short form) of 248 nM and an EC50 [1] of 527 nM were found for CC(Cc1cc(F)c(OCc2c(-c3ncc(Cl)cc3F)nsc2C(F)(F)F)c(F)c1)C(=O)O (stereo not drawn) [Cpd 265, 3-(4-{[3-(5-Chloro-3-fluoropyridin-2-yl)-5-(trifluoromethyl)isothiazol-4-yl]methoxy}-3,5-difluorophenyl)-2-methylpropanoic acid] in this work.

An EC50 (Human GPR120 short form) of 379 nM and an EC50 [1] of 667 nM were found for Cc1c(CCC(=O)O)ccc(OCc2c(-c3ccc(C#N)cc3)nsc2C(F)(F)F)c1C [Cpd 264, 3-(4-{[3-(4-Cyanophenyl)-5-(trifluoromethyl)isothiazol-4-yl]methoxy}-2,3-dimethylphenyl)propanoic acid] in this work.

An EC50 (Human GPR120 short form) of 573 nM and an EC50 [1] of 750 nM were found for O=C(O)CCc1cc(F)c(OCc2c(-c3ccns3)nsc2C(F)(F)F)c(F)c1 [Cpd 272, 3-(3,5-Difluoro-4-{[5-(trifluoromethyl)-3,5′-biisothiazol-4-yl]methoxy}phenyl)propanoic acid] in this work.
